# Measured values from ChEMBL document CHEMBL3576804, “Novel Potent Orthosteric Antagonist of ASIC1a Prevents NMDAR-Dependent LTP Induction” (J Med Chem, 2015).
# How the values were obtained:
# [1] = biological target: T1, Acid-sensing ion channel 1 (Homo sapiens) (UniProt P78348); assay: Inhibition of human ASIC1a endogenously expressed in HEK293 cells clamped at -100 mV gated ionic current at 100 uM at pH 5.0 by standard whole cell patch clamp assay; format: cell-based
# T1 sequence (whole entry): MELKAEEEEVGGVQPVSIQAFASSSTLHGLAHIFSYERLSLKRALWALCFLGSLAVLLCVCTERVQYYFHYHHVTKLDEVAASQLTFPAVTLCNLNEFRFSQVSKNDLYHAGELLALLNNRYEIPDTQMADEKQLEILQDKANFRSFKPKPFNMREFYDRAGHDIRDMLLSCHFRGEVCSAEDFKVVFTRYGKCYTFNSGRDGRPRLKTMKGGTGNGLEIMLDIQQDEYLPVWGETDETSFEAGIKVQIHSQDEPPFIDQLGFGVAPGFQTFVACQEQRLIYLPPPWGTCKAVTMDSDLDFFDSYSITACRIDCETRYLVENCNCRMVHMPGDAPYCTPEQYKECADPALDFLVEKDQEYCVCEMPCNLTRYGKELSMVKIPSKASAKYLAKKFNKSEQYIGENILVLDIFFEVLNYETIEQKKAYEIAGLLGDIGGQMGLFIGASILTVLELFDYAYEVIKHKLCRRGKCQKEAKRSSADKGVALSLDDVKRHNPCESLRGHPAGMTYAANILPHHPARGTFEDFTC
# [2] = biological target: T1, Acid-sensing ion channel 1 (Homo sapiens); assay: Inhibition of human ASIC1a endogenously expressed in HEK293 cells clamped at -100 mV gated ionic current at 100 uM at pH 6.7 by standard whole cell patch clamp assay; format: cell-based
smiles,measurement,setting,value
CCN(CC)c1ccc2cc(C(=N)N)c(=O)oc2c1,inhibition,[1],41%
same,inhibition,[2],49%
